One assay relates to male Sprague-Dawley rats. The experiment in a line: Chronic Inescapable Shock in Rats (escape test). The note with it: stressed rats. In kind it is in vivo, rat. Here is the method: The Chronic Inescapable Shock in Rats model, developed from the learned Helplessness paradigm, was used to investigate the acquisition of shock-induced escape deficits in rats in the absence and presence of SSRI±COX-2 inhibitors. The test was performed over a period of seven days as an adaptation of the methodology used previously by Gambarana, C., […]. & De Montis, M. G. (1995). Experiments were carried out on male Sprague-Dawley rats (Charles River, Como, Italy). Animals were kept in a controlled environment with a constant temperature of 22° C. and a 12 hour light/12 hour inverted dark cycle, with free access to food and water. The procedures used in this study for all animals were in strict accordance with the European legislation on the use and care of laboratory animals (CEE N° 86/609) and experiments were performed under red light. The experimental procedure consists of a pre-test session (exposure to an unavoidable stress of minimum intensity and duration required to induce a reliable behavioural modification) followed 24 hours later by an escape test (for the assessment of the induced behavioural modification). […]

The target in the next assay is T1, human COX-1 (Homo sapiens, UniProt P23219).
T1 construct: expressed in transfected cells; host or cells: COS cells (stably transfected)
As to the kind of experiment: Inhibition of human COX-1 in stably transfected COS cells (PGE2 release). In kind it is cell-based. The settings on record: COS cells stably transfected with human COX-1.

A further assay deals with T2, human COX-2 (Homo sapiens, UniProt P35354).
T2 construct: expressed in transfected cells; host or cells: COS cells (stably transfected)
T2 sequence (P35354 18-604): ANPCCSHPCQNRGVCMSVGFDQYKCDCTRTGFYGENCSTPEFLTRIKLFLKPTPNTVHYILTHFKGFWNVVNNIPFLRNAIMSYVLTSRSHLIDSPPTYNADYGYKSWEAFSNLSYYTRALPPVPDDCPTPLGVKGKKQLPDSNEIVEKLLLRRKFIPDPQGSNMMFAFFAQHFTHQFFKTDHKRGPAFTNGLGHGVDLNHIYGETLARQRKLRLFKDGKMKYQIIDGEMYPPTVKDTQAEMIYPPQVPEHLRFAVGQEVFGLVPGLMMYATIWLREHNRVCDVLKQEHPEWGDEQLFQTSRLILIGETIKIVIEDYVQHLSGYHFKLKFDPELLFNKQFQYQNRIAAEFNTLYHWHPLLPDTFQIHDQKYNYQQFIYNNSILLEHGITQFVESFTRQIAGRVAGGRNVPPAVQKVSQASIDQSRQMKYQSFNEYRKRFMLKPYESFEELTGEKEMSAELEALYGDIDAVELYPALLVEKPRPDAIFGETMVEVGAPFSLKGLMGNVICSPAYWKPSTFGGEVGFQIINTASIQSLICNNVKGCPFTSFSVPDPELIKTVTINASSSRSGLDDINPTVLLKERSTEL
The experiment in a line: Inhibition of human COX-2 in stably transfected COS cells (PGE2 release). The settings on record: COS cells stably transfected with human COX-2. It counts as cell-based.

A further assay addresses T3, microsomal h-COX2 (Homo sapiens, UniProt P35354).
T3 construct: made in house; host or cells: baculovirus infected SF9 cells (microsomal preparation)
T3 sequence (P35354 18-604): T2 sequence (P35354 18-604)
The experiment in a line: Microsomal assay, COX-2 (microsomal preparation from baculovirus infected SF9 cells). It counts as biochemical.

[1] abbreviates: microsomal assay, PGE2 by EIA, read-out: COX-2: IC50.

Like-named read-outs stand apart in the source and are kept apart here.

T1 sequence (P23219 24-599): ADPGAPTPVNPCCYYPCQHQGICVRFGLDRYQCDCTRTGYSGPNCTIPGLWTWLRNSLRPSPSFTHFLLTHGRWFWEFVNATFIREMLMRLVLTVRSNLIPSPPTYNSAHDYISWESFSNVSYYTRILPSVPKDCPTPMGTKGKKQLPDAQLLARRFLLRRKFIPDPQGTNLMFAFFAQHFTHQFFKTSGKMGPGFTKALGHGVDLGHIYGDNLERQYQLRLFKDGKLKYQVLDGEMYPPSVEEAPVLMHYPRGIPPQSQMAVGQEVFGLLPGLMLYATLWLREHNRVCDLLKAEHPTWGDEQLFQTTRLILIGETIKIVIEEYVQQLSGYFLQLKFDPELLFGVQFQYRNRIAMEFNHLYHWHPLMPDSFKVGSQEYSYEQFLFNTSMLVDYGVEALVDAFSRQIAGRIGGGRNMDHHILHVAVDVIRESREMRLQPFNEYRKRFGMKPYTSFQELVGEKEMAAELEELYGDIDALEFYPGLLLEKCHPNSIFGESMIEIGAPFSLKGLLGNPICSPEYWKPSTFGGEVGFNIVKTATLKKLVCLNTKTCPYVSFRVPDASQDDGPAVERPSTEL
Procedure for human COX-1: (§1) 24 Hours prior to experiment, COS cells were transferred from the 175 cm^2 flasks in which they were grown, onto 24-well cell culture plates using the following procedure. The incubation medium
(Dulbecco's modified eagles medium (DMEM) supplemented with heat-inactivated foetal calf serum (10% v/v), penicillin (100 lU/ml), streptomycin (100 μg/ml) and geneticin (600 μg/ml)) was removed from a flask of confluent cells (1 flask at confluency contains approximately 1×10^7 cells). 10 ml of phosphate buffered saline (PBS) was added to the flask to wash the cells. Having discarded the PBS, cells were then rinsed in 10 ml trypsin for 20 seconds, after which the trypsin was removed and the flask placed in an incubator (37°) for 1-2 minutes until cells became detached from the flask. The flask was then removed from the incubator and cells resuspended in 10 ml of fresh incubation medium. The contents of the flask was transferred to a 250 ml sterile container and the volume of incubation medium subsequently made up to 100 ml. […] The plates were then placed in an incubator (37° C., 95% air/5% CO2) overnight. If more than 1 flask of cells were required, the cells from the individual flasks were combined before being dispensed into the 24-well plates.
Following the overnight incubation, the incubation medium was completely removed from the 24-well cell culture plates and replaced with 250 μl fresh DMEM (37° C.). The test compounds were made up to 250× the required test concentration in DMSO and were added to the wells in a volume of 1 μl. Plates were then mixed gently by swirling and then placed in an incubator for 1 hour (37° C., 95% air/5% CO2). Following the incubation period, 10 μl of arachidonic acid (750 μM) was added to each well to give a final arachidonic acid concentration of 30 μM. Plates were then incubated for a further 15 minutes, after which the incubation medium was removed from each well of the plates and stored at −20° C., prior to determination of prostaglandin E2 (PGE2) levels using enzyme immunoassay. The inhibitory potency of the test compound was expressed as an IC50 value, which is defined as the concentration of the compound required to inhibit the PGE2 release from the cells by 50%. The selectivity ratio of inhibition of COX-1 versus COX-2 was calculated by comparing respective IC50 values.
Procedure for human COX-2: as §1
(Dulbecco's modified eagles medium (DMEM) supplemented with heat-inactivated foetal calf serum (10% v/v), penicillin (100 lU/ml), streptomycin (100 μg/ml) and geneticin (600 μg/ml)) was removed from a flask of confluent cells (1 flask at confluency contains approximately 1×10^7 cells). 10 ml of phosphate buffered saline (PBS) was added to the flask to wash the cells. Having discarded the PBS, cells were then rinsed in 10 ml trypsin for 20 seconds, after which the trypsin was removed and the flask placed in an incubator (37°) for 1-2 minutes until cells became detached from the flask. The flask was then removed from the incubator and cells resuspended in 10 ml of fresh incubation medium. The contents of the flask was transferred to a 250 ml sterile container and the volume of incubation medium subsequently made up to 100 ml. […] If more than 1 flask of cells were required, the cells from the individual flasks were combined before being dispensed into the 24-well plates.
Following the overnight incubation, the incubation medium was completely removed from the 24-well cell culture plates and replaced with 250 μl fresh DMEM (37° C.). […]
Procedure for microsomal h-COX2: Inhibitory activity against microsomal h-COX2 was assessed against a microsomal preparation from baculovirus infected SF9 cells. An aliquot of microsomal preparation was thawed slowly on ice and a 1/40,000 dilution prepared from it into the assay buffer (sterile water, degassed with argon containing 100 mM HEPES (pH 7.4), 10 mM EDTA (pH7.4), 1 mM phenol, 1 mM reduced glutathione, 20 mg/ml gelatin and 0.001 mM Hematin). Once diluted the enzyme solution was then sonicated for 5 seconds (Branson sonicator, setting 4, 1 cm tip) to ensure a homogeneous suspension. […] Plates were then mixed and incubated at room temperature for 1 hour. Following the incubation period, 40 μl of 0.5 μM arachidonic acid was added to each well to give a final concentration of 0.1 μM. Plates were then mixed and incubated for exactly 10 minutes (room temperature) prior to addition of 25 μl 1M HCl (hydrochloric acid) to each well to stop the reaction. 25 μl of 1M NaOH (sodium hydroxide) was then added to each well to neutralise the solution prior to determination of PGE2 levels by enzyme immunoassay (EIA).

Consider `Fc1ccc([C@@H]2CCNC[C@H]2COc2ccc3c(c2)OCO3)cc1` (relative stereo) [PAROXETINE, trans-(−)-3-[(1,3-benzodioxol-5-yloxy)methyl]-4-(4-fluorophenyl)piperidine], for which, in the assay with male Sprague-Dawley rats (7 days of treatment p.o., escapes out of 30 consecutive trials on day 8), the “MEAN Number of escapes” value amounted to 3.8. The “reversal of chronic escape deficit” value in the assay with male Sprague-Dawley rats (after 7 days of treatment, day 8) is “lack of reversal of chronic inescapable shock”. As a reminder, the IC50 is the concentration that inhibits the measured activity by half. The compound `CS(=O)(=O)c1ccc(-c2c(-c3ccc(F)cc3)nn3nc(OC(F)F)ccc23)cc1` [2.1(v), 6-Difluoromethoxy-2-(4-fluoro-phenyl)-3-(4-methanesulfonyl-phenyl)-pyrazolo[1,5-b]pyridazine] registered an IC50 on human COX-1 greater than 100 µM.

Compound `COc1ccc(-c2nn3ncccc3c2-c2ccc(S(C)(=O)=O)cc2)cc1` [2.2(ii), 3-(4-Methanesulfonyl-phenyl)-2-(4-methoxy-phenyl)-pyrazolo[1,5-b]pyridazine] yielded an IC50 against human COX-2 of less than 10 nM. In turn, `CCOc1ccc(-c2nn3ncccc3c2-c2ccc(S(C)(=O)=O)cc2)cc1` [2.3(ii), 2-(4-Ethoxy-phenyl)-3-(4-methanesulfonyl-phenyl)-pyrazolol[5-b]pyridazine] gave an IC50 at human COX-1 greater than 100 µM.

As for `CS(=O)(=O)c1ccc(-c2c(-c3cccc(F)c3)nn3nc(OC(F)F)ccc23)cc1` [2.7(viii), 6-Difluoromethoxy-2-(3-fluoro-phenyl)-3-(4-methanesulfonyl-phenyl)-pyrazolo[1,5-b]pyridazine], the IC50 against human COX-1 is greater than 55.2 µM. On the same count and under the same terms, the value for `CS(=O)(=O)c1ccc(-c2c(-c3ccc(OC(F)F)cc3)nn3ncccc23)cc1` [Compound 2.5, 2-(4-Difluoromethoxy-phenyl)-3-(4-methanesulfonyl-phenyl)-pyrazolo[1,5-b]pyridazine] was greater than 100 µM.

On to `Cc1ccc(Oc2nc(-c3ccc(S(C)(=O)=O)cc3)cc(C(F)(F)F)n2)cc1` [Example 1.6], for which the IC50 on microsomal h-COX2 (setting [1]) was less than 10 nM. For `CS(=O)(=O)c1ccc(-c2cc(C(F)(F)F)nc(Oc3cncc(Cl)c3)n2)cc1` [Example 1.7], the IC50 at microsomal h-COX2 (setting [1]) is less than 10 nM. As to `CS(=O)(=O)c1ccc(-c2cc(C(F)(F)F)cc(OCc3ccccn3)n2)cc1` [Example 3.2, 2-[4-(methylsulfonyl)phenyl]-6-[(2-pyridinylmethyl)oxy]-4-(trifluoromethyl)pyridine], at microsomal h-COX2 (stated in text after the microsomal assay table, read-out: IC50 values for inhibition of COX-2), the half-inhibitory concentration (IC50) was no more than 500 nM.

The values are drawn from patent US20070270428A1, “Use of Cyclooxygenase-2 Inhibitors for the Treatment of Depressive Disorders” (priority 2003, published 2007).
